Data on one compound can be found in PMC8150775, “Repositioning Azelnidipine as a Dual Inhibitor Targeting CD47/SIRPα and TIGIT/PVR Pathways for Cancer Immuno-Therapy” (Biomolecules, 2021).

This assay has as its system CT26 tumors. The assay can be described thus: CT26 tumor model with ex vivo T cell analysis. The assay is classed as in vivo, BALB/c mice. The following applies: for Spleen CD8+IFN-γ (%): splenocytes. On the procedure: BABL/c mice were subcutaneously (s.c.) injected with 2 × 10^5 CT26 cells on the right back, and C57BL/6 mice were injected with 1 × 10^6 MC38 cells. One week later, tumor-bearing mice were randomized into indicated groups, and intraperitoneal (i.p.) injected with azelnidipine or normal saline every day for two weeks. Tumor volumes were measured every other day by the (a) length, (b) width, and (c) height and calculated as volume (V) = a × b × c/2. For the combinational model of azelnidipine and radiotherapy (RT), MC38 tumor-bearing mice received irradiation (IR) when the tumors reached 80–100 mm^3. The mice received one dose of 20 Gy irradiation at the tumor local site, and followed by the treatment of azelnidipine.
Tumor-bearing mice were sacrificed at the end of the treatment. The tumors were dissected and digested into single cell with an enzyme cocktail of 100 U/mL collagenase IV; and Dnase I. The infiltration of CD8^+ T cells at the tumor site was detected by flow cytometry by staining of anti-mouse CD45, anti-mouse CD3, anti-mouse CD8α or isotype control. The MDSCs at the tumor site were analyzed by staining of anti-mouse CD45, anti-mouse CD11b, anti-mouse Ly6C, and anti-mouse Ly6G. Spleens and draining lymph nodes were grinded and filtered into a single cell suspension. The tumor-infiltrating lymphocytes (TILs) isolated by Percoll-gradient centrifugation, splenocytes, and cells from draining lymph nodes were also performed the intracellular cytokine staining assays. The cells were stimulated with or without 20 ng/mL of phorbol 12-myristate 13-acetate (PMA, Sigma-Aldrich, St. Louis, MO, USA) and 1 µM ionomycin (Sigma-Aldrich) with the presence of protein transport inhibitor cocktail (eBioscience) for 4 h. The surface marker CD3, CD8, and the intracellular cytokine marker IFN-γ were sequentially stained according to the Foxp3/Transcription Factor Staining Buffer Set (00-5523, eBioscience). The frequency of IFN-γ secreting CD8^+ T cells were counted according to the fluorescence minus one (FMO) control with the isotype control of IFN-γ antibody.
Figure 6 The antitumor effects of azelnidipine in CT26 tumor model. (A) CT26 tumor-bearing mice were i.p. administrated with 2 or 5 mg/kg of azelnidipine each day for 2 weeks as in the schematic diagram. (B) Tumor growth curve of CT26 tumor-bearing mice treated with normal saline or azelnidipine (n = 7). *, p < 0.05, ***, p < 0.001.Two-way ANOVA with Tukey’s multiple-comparisons test were conducted. (C) Representative flow cytometry plots and summary data of the frequency of CD8^+ T cells in the tumor tissues. Representative intracellular IFN-γ staining plots and summary data of the tumor infiltrating CD8^+ T cells (D), tumor-draining lymph node cells (E) and splenocytes (F). The frequency of IFN-γ secreting CD8^+ T cells were counted according to the fluorescence minus one (FMO) control with the isotype control of IFN-γ antibody. *, p < 0.05, **, p < 0.01, Student’s t-test were conducted. TEXT PRINTED IN THE PICTURE: (C) NS: Tumor CD3^+CD8^+ (%): 6.27 | (C) Azelnidipine: Tumor CD3^+CD8^+ (%): 7.46 (2 mg/kg); Tumor CD3^+CD8^+ (%): 9.35 (5 mg/kg) | (D) NS: Tumor CD8^+IFN-γ (%): 14.8 | (D) Azelnidipine: Tumor CD8^+IFN-γ (%): 12.4 (2 mg/kg); Tumor CD8^+IFN-γ (%): 20.0 (5 mg/kg) | (E) NS: dLN CD8^+IFN-γ (%): 0.45 | (E) Azelnidipine: dLN CD8^+IFN-γ (%): 0.53 (2 mg/kg); dLN CD8^+IFN-γ (%): 1.10 (5 mg/kg) | (F) NS: Spleen CD8^+IFN-γ (%): 5.32 | (F) Azelnidipine: Spleen CD8^+IFN-γ (%): 7.71 (2 mg/kg); Spleen CD8^+IFN-γ (%): 7.91 (5 mg/kg) DOUBTS OF THE COPYIST ABOUT THIS PICTURE: Panels C-F: the flow plots are headed only 'NS', '2 mg/kg' and '5 mg/kg'. The name 'Azelnidipine' is taken from panels A and B of the same picture. / Panels C-F: the numbers in the flow plots have no measure or unit beside them. The measure (e.g. 'CD3^+CD8^+ (%)') and the tissue ('Tumor', 'dLN', 'Spleen') are taken from the bar chart in the same panel. / NS is the control group. […]

In the case of `CC1=C(C(=O)OC(C)C)C(c2cccc([N+](=O)[O-])c2)C(C(=O)OC2CN(C(c3ccccc3)c3ccccc3)C2)=C(N)N1` (stereo not drawn) [Azelnidipine], where the note is “2 mg/kg i.p. (low dosage)”, the “Spleen CD8+IFN-γ (%)” value is recorded as “enhance”. Further, the “Spleen CD8+IFN-γ (%)” value (5 mg/kg i.p. (high dosage)) is “significantly boost”. Moreover, the “dLN CD8+IFN-γ (%)” value (5 mg/kg i.p. (high dosage), tumor-draining lymph node) is reported as “significantly boost”. Moreover, for the setting “2 and 5 mg/kg i.p. each day for 2 weeks”, the CT26 tumor growth entry is on record as “significantly restrict”. For the setting “dose not given”, the “IFN-γ secretion function of the tumor infiltrating CD8+ T cells” value is listed as “enhanced” and the “frequency of CD8+ T cells in the tumor tissues” value is “remarkably increase”.
